In ChEMBL document CHEMBL1126278, “New neplanocin analogues. 1. Synthesis of 6'-modified neplanocin A derivatives as broad-spectrum antiviral agents” (J Med Chem, 1992):
In brackets after ≈: the same amount, converted by molar mass.

Legend:
HeLa [1] = test: Inhibitory effect on replication of RNA virus coxsB-4 in HeLa cell line.; assay type: functional, cell-based; conditions: Homo sapiens
HEL [2] = test: Inhibitory effect on replication of DNA virus TK-VZV (YSR) on HEL cell line.; assay type: functional, cell-based; conditions: Homo sapiens
Vero [3] = test: Inhibitory effect on replication of RNA virus SFV in Vero cell line; assay type: functional, cell-based; conditions: Chlorocebus sabaeus
MT4 [4] = test: Inhibitory effect on replication of RNA virus cell growth in MT-4 cell line.; assay type: functional, cell-based; conditions: Homo sapiens
HEL [5] = test: Inhibitory effect on replication of DNA virus CMV (AD-169) on HEL cell line.; assay type: functional, cell-based; conditions: Homo sapiens
HEL [6] = test: Inhibitory effect on replication of DNA virus CMV (Davis) on HEL cell line.; assay type: functional, cell-based; conditions: Homo sapiens
HEL [7] = test: Inhibitory effect on replication of DNA virus VZV (Oka) on HEL cell line.; assay type: functional, cell-based; conditions: Homo sapiens
PRK [8] = test: Inhibitory effect on replication of RNA virus VSV in PRK cell line.; assay type: functional, cell-based; conditions: Oryctolagus cuniculus
HeLa [9] = test: Inhibitory effect on replication of RNA virus VSV in HeLa cell line.; assay type: functional, cell-based; conditions: Homo sapiens
Vero [10] = test: Inhibitory effect on replication of RNA virus PV-3 in Vero cell line.; assay type: functional, cell-based; conditions: Chlorocebus sabaeus
HEL [11] = test: Inhibitory effect on replication of DNA virus VZV (YS) on HEL cell line.; assay type: functional, cell-based; conditions: Homo sapiens
MDCK [12] = test: cells; conditions: Canis lupus familiaris
MDCK [13] = test: Inhibitory effect on replication of RNA virus cell morphology in MDCK cell line.; assay type: functional, cell-based; conditions: Canis lupus familiaris
Vero [14] = test: Inhibitory effect on replication of RNA virus reo-1 in Vero cell line.; assay type: functional, cell-based; conditions: Chlorocebus sabaeus
[15] = Inhibitory effect on replication of DNA virus HSV-1 (KOS) in PRK cell line.; assay type: functional, cell-based; conditions: Oryctolagus cuniculus
PRK [16] = test: Inhibitory effect on replication of RNA virus cell morphology in PRK cell line.; assay type: functional, cell-based; conditions: Oryctolagus cuniculus
HeLa [17] = test: Inhibitory effect on replication of RNA virus RSV in HeLa cell line; assay type: functional, cell-based; conditions: Homo sapiens
HEL [18] = test: Inhibitory effect on replication of DNA virus TK-VZV (07-1) on HEL cell line.; assay type: functional, cell-based; conditions: Homo sapiens
Vero [19] = test: Inhibitory effect on replication of RNA virus SV in Vero cell line.; assay type: functional, cell-based; conditions: Chlorocebus sabaeus
MT4 [20] = test: Inhibitory effect on replication of RNA virus HIV-2 in MT-4 cell line.; assay type: functional, cell-based; conditions: Homo sapiens
MDCK [21] = test: cells; conditions: Canis lupus familiaris; remark: listed apart in the source
Vero [22] = test: Inhibitory effect on replication of RNA virus JV in Vero cell line.; assay type: functional, cell-based; conditions: Chlorocebus sabaeus
Adenosylhomocysteinase = Adenosylhomocysteinase (Mus musculus, UniProt P50247); test: Inhibitory effect against L929 Cell S-adenosyl-L-homocysteine hydrolase
MT4 [23] = test: Inhibitory effect on replication of RNA virus HIV-1 in MT-4 cell line.; assay type: functional, cell-based; conditions: Homo sapiens
[24] = Inhibitory effect on replication of DNA virus HSV-2 (G) in PRK cell line.; assay type: functional, cell-based; conditions: Oryctolagus cuniculus
Vero [25] = test: Inhibitory effect on replication of RNA virus protein synthesis in Vero cell line.; assay type: functional, cell-based; conditions: Chlorocebus sabaeus
Vero [26] = test: Inhibitory effect on replication of RNA virus measles on Vero cell line.; assay type: functional, cell-based; conditions: Chlorocebus sabaeus
HeLa [27] = test: cells; conditions: Homo sapiens
Vero [28] = test: Inhibitory effect on replication of RNA virus coxsB-4 in Vero cell line; assay type: functional, cell-based; conditions: Chlorocebus sabaeus
HeLa [29] = test: Inhibitory effect on replication of RNA virus cell morphology in HeLa cell line.; assay type: functional, cell-based; conditions: Homo sapiens
Vero [30] = test: Inhibitory effect on replication of RNA virus RNA synthesis in Vero cell line.; assay type: functional, cell-based; conditions: Chlorocebus sabaeus
PRK [31] = test: Inhibitory effect on replication of DNA virus VV on PRK cell line.; assay type: functional, cell-based; conditions: Oryctolagus cuniculus
PRK [32] = test: Inhibitory effect on replication of DNA virus Cell morphology on PRK cell line; assay type: functional, cell-based; conditions: Oryctolagus cuniculus
Vero [33] = test: Inhibitory effect on replication of RNA virus TV in Vero cell line.; assay type: functional, cell-based; conditions: Chlorocebus sabaeus
Vero [34] = test: Inhibitory effect on replication of RNA virus cell morphology in Vero cell line.; assay type: functional, cell-based; conditions: Chlorocebus sabaeus
ESM [35] = test: Inhibitory effect on replication of DNA virus TK-HSV-1 (B2006) on ESM cell line.; assay type: functional, cell-based
ESM [36] = test: Inhibitory effect on replication of DNA virus VV on ESM cell line.; assay type: functional, cell-based
ESM [37] = test: Inhibitory effect on replication of DNA virus HSV-1 (KOS) in ESM cell line; assay type: functional, cell-based
HEL [38] = test: Inhibitory effect on replication of DNA virus Cell growth on HEL cell line.; assay type: functional, cell-based; conditions: Homo sapiens
ESM [39] = test: Inhibitory effect on replication of RNA virus cell morphology in ESM cell line.; assay type: functional, cell-based
ESM [40] = test: Inhibitory effect on replication of DNA virus Cell morphology on ESM cell line; assay type: functional, cell-based
ESM [41] = test: Inhibitory effect on replication of RNA virus VSV in ESM cell line.; assay type: functional, cell-based
ESM [42] = test: Inhibitory effect on replication of DNA virus HSV-2 (G) in ESM cell line; assay type: functional, cell-based
ESM [43] = test: Inhibitory effect on replication of DNA virus TK-HSV-1 (VMW 1837) on ESM cell line.; assay type: functional, cell-based
HeLa [44] = test: Inhibitory effect on replication of DNA virus RNA virus cell morphology in HeLa cell line.; assay type: functional, cell-based; conditions: Homo sapiens

Chain of Adenosylhomocysteinase (P50247 whole entry): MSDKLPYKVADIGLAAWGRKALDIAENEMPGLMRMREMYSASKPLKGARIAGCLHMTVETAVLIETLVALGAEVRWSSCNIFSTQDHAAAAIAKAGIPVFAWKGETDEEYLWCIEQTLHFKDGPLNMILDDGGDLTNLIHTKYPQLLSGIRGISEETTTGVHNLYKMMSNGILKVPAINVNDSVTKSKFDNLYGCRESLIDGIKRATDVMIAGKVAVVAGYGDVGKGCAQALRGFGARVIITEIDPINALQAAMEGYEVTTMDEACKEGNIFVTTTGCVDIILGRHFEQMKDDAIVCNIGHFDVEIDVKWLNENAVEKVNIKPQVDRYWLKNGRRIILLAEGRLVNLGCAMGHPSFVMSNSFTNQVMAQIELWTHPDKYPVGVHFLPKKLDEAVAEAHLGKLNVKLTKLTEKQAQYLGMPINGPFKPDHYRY

CC1=C[C@@H](n2cnc3c(N)ncnc32)[C@H](O)[C@@H]1O
IC50 (HeLa [1]): > 200 µg/mL | IC50 (HEL [2]): 10 µg/mL (≈ 40.4 µM) | IC50 (Vero [3]): > 200 µg/mL | IC50 (MT4 [4]): 2.5 µg/mL (≈ 10.1 µM) | IC50 (HEL [5]): 2.5 µg/mL (≈ 10.1 µM) | IC50 (HEL [6]): 1.5 µg/mL (≈ 6.07 µM) | IC50 (HEL [7]): 20 µg/mL (≈ 80.9 µM) | IC50 (PRK [8]): 0.7 µg/mL (≈ 2.83 µM) | IC50 (HeLa [9]): 7 µg/mL (≈ 28.3 µM) | IC50 (Vero [10]): 20 µg/mL (≈ 80.9 µM) | IC50 (HEL [11]): 2 µg/mL (≈ 8.09 µM) | IC50 (MDCK [12]): > 100 µg/mL | IC50 (MDCK [13]): > 100 µg/mL | IC50 (Vero [14]): 0.7 µg/mL (≈ 2.83 µM) | IC50 [15]: > 200 µg/mL | IC50 (PRK [16]): > 400 µg/mL | IC50 (HeLa [17]): 10 µg/mL (≈ 40.4 µM) | IC50 (HEL [18]): 4 µg/mL (≈ 16.2 µM) | IC50 (Vero [19]): > 200 µg/mL | IC50 (MT4 [20]): > 1.5 µg/mL | IC50 (MDCK [21]): > 100 µg/mL | IC50 (Vero [22]): 0.4 µg/mL (≈ 1.62 µM) | Ki (Adenosylhomocysteinase): 150 nM | IC50 (MT4 [23]): > 1.5 µg/mL | IC50 [24]: > 200 µg/mL | IC50 (Vero [25]): 4.7 µg/mL (≈ 19 µM) | IC50 (Vero [26]): 4 µg/mL (≈ 16.2 µM) | IC50 (HeLa [27]): > 200 µg/mL | IC50 (Vero [28]): > 200 µg/mL | IC50 (HeLa [29]): > 400 µg/mL | IC50 (Vero [30]): 1.7 µg/mL (≈ 6.88 µM) | IC50 (PRK [31]): 0.7 µg/mL (≈ 2.83 µM) | IC50 (PRK [32]): > 400 µg/mL | IC50 (Vero [33]): 0.4 µg/mL (≈ 1.62 µM) | IC50 (Vero [34]): 40 µg/mL (≈ 162 µM)

Nc1ncnc2c1ncn2[C@@H]1C=C(CO)[C@@H](O)[C@H]1O [NEOPLANOCIN A]
IC50 (HeLa [1]): > 40 µg/mL | IC50 (HEL [2]): 2 µg/mL (≈ 7.6 µM) | IC50 (ESM [35]): 4 µg/mL (≈ 15.2 µM) | IC50 (Vero [3]): > 40 µg/mL | IC50 (MT4 [4]): 0.02 µg/mL (≈ 0.076 µM) | IC50 (HEL [5]): 0.3 µg/mL (≈ 1.14 µM) | IC50 (HEL [6]): 0.2 µg/mL (≈ 0.76 µM) | IC50 (HEL [7]): 8 µg/mL (≈ 30.4 µM) | IC50 (PRK [8]): 0.2 µg/mL (≈ 0.76 µM) | IC50 (HeLa [9]): 0.2 µg/mL (≈ 0.76 µM) | IC50 (Vero [10]): 0.4 µg/mL (≈ 1.52 µM) | IC50 (ESM [36]): 0.2 µg/mL (≈ 0.76 µM) | IC50 (HEL [11]): 5 µg/mL (≈ 19 µM) | IC50 (ESM [37]): 20 µg/mL (≈ 76 µM) | IC50 (MDCK [12]): > 20 µg/mL | IC50 (HEL [38]): 16 µg/mL (≈ 60.8 µM) | IC50 (ESM [39]): 40 µg/mL (≈ 152 µM) | IC50 (MDCK [13]): 20 µg/mL (≈ 76 µM) | IC50 (Vero [14]): 0.4 µg/mL (≈ 1.52 µM) | IC50 (ESM [40]): 40 µg/mL (≈ 152 µM) | IC50 [15]: > 40 µg/mL | IC50 (PRK [16]): 40 µg/mL (≈ 152 µM) | IC50 (HeLa [17]): 0.2 µg/mL (≈ 0.76 µM) | IC50 (HEL [18]): 5 µg/mL (≈ 19 µM) | IC50 (Vero [19]): > 40 µg/mL | IC50 (MDCK [21]): > 20 µg/mL | IC50 (Vero [22]): 0.4 µg/mL (≈ 1.52 µM) | IC50 (ESM [41]): 0.2 µg/mL (≈ 0.76 µM) | IC50 (MT4 [23]): > 0.006 µg/mL | IC50 [24]: > 40 µg/mL | IC50 (ESM [42]): 10 µg/mL (≈ 38 µM) | IC50 (ESM [43]): 7 µg/mL (≈ 26.6 µM) | IC50 (HeLa [44]): 20 µg/mL (≈ 76 µM) | IC50 (Vero [25]): 4.3 µg/mL (≈ 16.3 µM) | IC50 (Vero [26]): 0.2 µg/mL (≈ 0.76 µM) | IC50 (HeLa [27]): > 40 µg/mL | IC50 (Vero [28]): > 40 µg/mL | IC50 (Vero [30]): 0.21 µg/mL (≈ 0.798 µM) | IC50 (PRK [31]): 0.2 µg/mL (≈ 0.76 µM) | IC50 (PRK [32]): 40 µg/mL (≈ 152 µM) | IC50 (Vero [33]): 0.4 µg/mL (≈ 1.52 µM) | IC50 (Vero [34]): 10 µg/mL (≈ 38 µM)
